Here are results for one compound from patent US8088897B2, “Assay method for group transfer reactions” (BellBrook Labs, Inc., priority 2003, dated 2012).

pKi: −log10 of the molar value.

Usually pKi stands for the negative decadic logarithm of the Ki, by convention in mol/L.

Experiment [1] addresses T1, SULT1E1 (Homo sapiens, UniProt P49888).
T1 construct: made in house; host or cells: E. coli
T1 sequence (P49888 1-294): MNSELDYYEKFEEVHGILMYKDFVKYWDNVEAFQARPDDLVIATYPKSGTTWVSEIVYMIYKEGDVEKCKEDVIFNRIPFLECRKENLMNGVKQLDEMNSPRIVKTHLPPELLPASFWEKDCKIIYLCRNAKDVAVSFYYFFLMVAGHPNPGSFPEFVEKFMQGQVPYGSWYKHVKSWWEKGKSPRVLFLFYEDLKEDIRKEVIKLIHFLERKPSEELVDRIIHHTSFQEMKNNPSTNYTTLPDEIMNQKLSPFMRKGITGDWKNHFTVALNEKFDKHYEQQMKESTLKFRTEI
Briefly: Inhibition of SULT1E1 measured with the FPIA-based assay. The class given is biochemical. How it is done:
Specifically, FIG. 25 is a graph showing inhibition of SULT1E1 by 2,6 Dichloro-4-nitrophenol (DCNP) measured with the FPIA-based assay. DCNP was serially diluted two-fold into wells in 46 uL of phosphate assay buffer (30 mM KPO4 (pH 6.5), 0.5 mg/mL BGG, 15 mM DTT, 1.6 mM MgCl2, 4 μM PAPS), followed by 50 μl of a 2× Antibody/tracer mix (5 uL 3642 Ab/2 nM Tracer C8-PAP-F14), and 200 ng of SULTIE in a total volume of 100 μl. The plate was incubated at room temp for 30 min, and read on the Tecan Ultra. AmP values were calculated by subtracting the SULT1E reactions from the no SULTIE controls. All values represent the mean of replicates.

For experiment [2], the target named is T1, SULT1E1. Briefly: 35S-PAPS radioassay of SULT1E1 inhibition. The class given is biochemical. The note with it: 35S-radioassay.

In the case of `O=[N+]([O-])c1cc(Cl)c(O)c(Cl)c1` [DCNP, 2,6 Dichloro-4-nitrophenol], the pKi at SULT1E1 [1] was 2.11; at SULT1E1 [2], 1.96.
